Data reported in ChEMBL document CHEMBL2177025, “Chemical proteomics-based analysis of off-target binding profiles for rosiglitazone and pioglitazone: clues for assessing potential for cardiotoxicity” (J Med Chem, 2012).
The source made the active and inactive calls. The rule behind the calls is not given here.

What was measured:
[1] = target: T1, Cardiotrophin-like cytokine factor 1 (Mus musculus) (UniProt Q9QZM3); assay: Binding affinity to mouse cardiotrophin-like cytokine factor 1 precursor by chromatographic analysis relative to pioglitazone
T1 sequence (whole entry): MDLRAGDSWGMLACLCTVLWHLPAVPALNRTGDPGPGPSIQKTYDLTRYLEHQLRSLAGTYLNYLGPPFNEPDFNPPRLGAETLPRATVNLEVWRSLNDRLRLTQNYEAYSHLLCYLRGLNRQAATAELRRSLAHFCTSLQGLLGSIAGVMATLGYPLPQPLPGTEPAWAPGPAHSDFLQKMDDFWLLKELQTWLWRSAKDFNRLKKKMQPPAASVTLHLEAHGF

[2] = target: Kinesin light chain 1 (Rattus norvegicus) (UniProt P37285); assay: Binding affinity to Kinesin light chain 1 in Sprague-Dawley rat heart homogenate after 15 mins by chromatographic analysis; assay type: tissue-based
[3] = target: Malate dehydrogenase, mitochondrial (Rattus norvegicus) (UniProt P04636); assay: Binding affinity to mitochondrial malate dehydrogenase in Sprague-Dawley rat heart homogenate after 15 mins by chromatographic analysis; assay type: tissue-based
[4] = target: Serine/threonine-protein kinase WNK1 (Mus musculus) (UniProt P83741); assay: Binding affinity to mouse serine/threonine-protein kinase WNK1 by chromatographic analysis relative to rosiglitazone
Chain of Serine/threonine-protein kinase WNK1 (Mus musculus) (P83741 whole entry): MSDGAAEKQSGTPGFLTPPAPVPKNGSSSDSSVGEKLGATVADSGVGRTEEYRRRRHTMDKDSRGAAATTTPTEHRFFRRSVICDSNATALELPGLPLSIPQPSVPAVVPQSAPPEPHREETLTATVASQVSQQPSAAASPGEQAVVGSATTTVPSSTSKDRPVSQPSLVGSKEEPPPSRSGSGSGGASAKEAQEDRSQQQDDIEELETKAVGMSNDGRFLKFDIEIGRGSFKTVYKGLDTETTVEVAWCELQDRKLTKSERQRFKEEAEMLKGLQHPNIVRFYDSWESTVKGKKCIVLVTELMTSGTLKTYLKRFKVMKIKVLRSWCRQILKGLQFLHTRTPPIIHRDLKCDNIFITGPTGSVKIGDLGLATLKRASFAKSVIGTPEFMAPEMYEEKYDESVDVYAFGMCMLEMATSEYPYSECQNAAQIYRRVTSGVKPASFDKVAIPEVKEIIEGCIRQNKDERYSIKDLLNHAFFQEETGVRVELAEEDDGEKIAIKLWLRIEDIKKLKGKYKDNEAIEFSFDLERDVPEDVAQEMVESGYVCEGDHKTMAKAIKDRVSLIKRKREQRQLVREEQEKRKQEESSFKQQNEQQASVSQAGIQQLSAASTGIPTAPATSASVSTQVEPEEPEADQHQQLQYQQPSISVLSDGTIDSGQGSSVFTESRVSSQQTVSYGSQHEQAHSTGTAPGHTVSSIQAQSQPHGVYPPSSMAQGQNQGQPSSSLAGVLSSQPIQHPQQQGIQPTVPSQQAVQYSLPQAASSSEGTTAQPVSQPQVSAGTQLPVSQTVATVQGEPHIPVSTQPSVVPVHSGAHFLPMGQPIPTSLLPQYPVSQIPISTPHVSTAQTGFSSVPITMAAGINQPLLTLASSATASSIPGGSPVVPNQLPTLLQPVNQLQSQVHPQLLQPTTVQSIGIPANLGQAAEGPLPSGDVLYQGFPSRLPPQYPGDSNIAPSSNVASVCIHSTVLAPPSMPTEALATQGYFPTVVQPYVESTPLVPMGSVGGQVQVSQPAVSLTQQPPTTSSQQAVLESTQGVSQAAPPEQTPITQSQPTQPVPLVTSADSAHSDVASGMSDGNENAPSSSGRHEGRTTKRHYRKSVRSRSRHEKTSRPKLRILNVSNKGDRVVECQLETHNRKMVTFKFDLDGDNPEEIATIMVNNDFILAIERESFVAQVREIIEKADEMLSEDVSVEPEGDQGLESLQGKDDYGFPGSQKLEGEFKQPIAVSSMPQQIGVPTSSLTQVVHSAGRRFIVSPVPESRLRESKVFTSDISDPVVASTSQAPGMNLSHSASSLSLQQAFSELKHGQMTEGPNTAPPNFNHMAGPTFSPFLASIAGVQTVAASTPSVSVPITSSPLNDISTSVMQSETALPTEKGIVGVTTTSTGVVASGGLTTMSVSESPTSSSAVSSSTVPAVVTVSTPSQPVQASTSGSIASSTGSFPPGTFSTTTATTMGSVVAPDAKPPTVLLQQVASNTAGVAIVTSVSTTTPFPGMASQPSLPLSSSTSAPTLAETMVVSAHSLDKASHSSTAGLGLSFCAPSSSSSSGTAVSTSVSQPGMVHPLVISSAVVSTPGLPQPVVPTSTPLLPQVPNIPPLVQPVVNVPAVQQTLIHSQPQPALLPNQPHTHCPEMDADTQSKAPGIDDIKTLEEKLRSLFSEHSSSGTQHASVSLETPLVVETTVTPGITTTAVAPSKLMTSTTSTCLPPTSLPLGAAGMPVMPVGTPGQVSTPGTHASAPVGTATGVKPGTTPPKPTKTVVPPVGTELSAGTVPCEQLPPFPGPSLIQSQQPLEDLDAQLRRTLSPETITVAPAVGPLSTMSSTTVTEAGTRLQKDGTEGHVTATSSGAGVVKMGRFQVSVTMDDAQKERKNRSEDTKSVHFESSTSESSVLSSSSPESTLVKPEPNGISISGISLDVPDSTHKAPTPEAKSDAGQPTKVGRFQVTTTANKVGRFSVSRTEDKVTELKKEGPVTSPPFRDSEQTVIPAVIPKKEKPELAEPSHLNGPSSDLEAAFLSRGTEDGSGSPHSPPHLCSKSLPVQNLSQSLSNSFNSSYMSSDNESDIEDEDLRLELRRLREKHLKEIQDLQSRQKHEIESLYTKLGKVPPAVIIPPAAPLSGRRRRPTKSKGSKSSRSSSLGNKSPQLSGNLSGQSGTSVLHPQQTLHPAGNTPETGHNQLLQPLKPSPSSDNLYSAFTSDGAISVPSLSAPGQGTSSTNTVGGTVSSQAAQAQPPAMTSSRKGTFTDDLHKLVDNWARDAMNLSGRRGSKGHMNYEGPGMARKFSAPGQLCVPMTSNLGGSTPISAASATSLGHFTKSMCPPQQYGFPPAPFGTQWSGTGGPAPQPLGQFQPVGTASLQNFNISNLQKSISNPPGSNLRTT

[5] = target: Hepatocyte nuclear factor 6 (Mus musculus) (UniProt O08755); assay: Binding affinity to mouse hepatocyte nuclear factor 6 by chromatographic analysis
[6] = target: Kalirin (Rattus norvegicus) (UniProt P97924); assay: Binding affinity to Huntingtin-associated protein-interacting protein in Sprague-Dawley rat heart homogenate after 15 mins by chromatographic analysis; assay type: tissue-based
[7] = target: Prolactin-3B1 (Rattus norvegicus) (UniProt P09321); assay: Binding affinity to chorionic somatomammotropin hormone 2 precursor in Sprague-Dawley rat heart homogenate after 15 mins by chromatographic analysis relative to pioglitazone; assay type: tissue-based
[8] = target: Rab11 family-interacting protein 4 (Mus musculus) (UniProt Q8BQP8); assay: Binding affinity to mouse Rab11 family interacting protein 4 by chromatographic analysis relative to pioglitazone
[9] = target: Malate dehydrogenase, cytoplasmic (Mus musculus) (UniProt P14152); assay: Binding affinity to mouse cytoplasmic malate dehydrogenase by chromatographic analysis
[10] = target: Selenocysteine insertion sequence-binding protein 2 (Rattus norvegicus) (UniProt Q9QX72); assay: Binding affinity to SECIS-binding protein 2 in Sprague-Dawley rat heart homogenate after 15 mins by chromatographic analysis relative to pioglitazone; assay type: tissue-based
[11] = target: L-lactate dehydrogenase B chain (Rattus norvegicus) (UniProt P42123); assay: Binding affinity to L-lactate dehydrogenase B chain in Sprague-Dawley rat heart homogenate after 15 mins by chromatographic analysis relative to rosiglitazone; assay type: tissue-based
Chain of L-lactate dehydrogenase B chain (Rattus norvegicus) (P42123 whole entry): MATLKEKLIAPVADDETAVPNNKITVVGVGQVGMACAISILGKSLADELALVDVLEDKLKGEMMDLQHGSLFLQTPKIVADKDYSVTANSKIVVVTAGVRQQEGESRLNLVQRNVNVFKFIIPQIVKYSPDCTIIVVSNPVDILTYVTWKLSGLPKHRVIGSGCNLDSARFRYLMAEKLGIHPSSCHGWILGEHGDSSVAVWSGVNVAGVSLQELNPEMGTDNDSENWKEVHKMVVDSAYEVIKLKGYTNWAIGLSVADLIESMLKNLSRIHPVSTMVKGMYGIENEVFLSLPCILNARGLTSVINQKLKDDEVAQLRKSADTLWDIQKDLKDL

[12] = target: Voltage-dependent L-type calcium channel subunit alpha-1F (Mus musculus) (UniProt Q9JIS7); assay: Binding affinity to mouse voltage-dependent L-type calcium channel alpha-1F subunit by chromatographic analysis
Chain of Voltage-dependent L-type calcium channel subunit alpha-1F (Mus musculus) (Q9JIS7 whole entry): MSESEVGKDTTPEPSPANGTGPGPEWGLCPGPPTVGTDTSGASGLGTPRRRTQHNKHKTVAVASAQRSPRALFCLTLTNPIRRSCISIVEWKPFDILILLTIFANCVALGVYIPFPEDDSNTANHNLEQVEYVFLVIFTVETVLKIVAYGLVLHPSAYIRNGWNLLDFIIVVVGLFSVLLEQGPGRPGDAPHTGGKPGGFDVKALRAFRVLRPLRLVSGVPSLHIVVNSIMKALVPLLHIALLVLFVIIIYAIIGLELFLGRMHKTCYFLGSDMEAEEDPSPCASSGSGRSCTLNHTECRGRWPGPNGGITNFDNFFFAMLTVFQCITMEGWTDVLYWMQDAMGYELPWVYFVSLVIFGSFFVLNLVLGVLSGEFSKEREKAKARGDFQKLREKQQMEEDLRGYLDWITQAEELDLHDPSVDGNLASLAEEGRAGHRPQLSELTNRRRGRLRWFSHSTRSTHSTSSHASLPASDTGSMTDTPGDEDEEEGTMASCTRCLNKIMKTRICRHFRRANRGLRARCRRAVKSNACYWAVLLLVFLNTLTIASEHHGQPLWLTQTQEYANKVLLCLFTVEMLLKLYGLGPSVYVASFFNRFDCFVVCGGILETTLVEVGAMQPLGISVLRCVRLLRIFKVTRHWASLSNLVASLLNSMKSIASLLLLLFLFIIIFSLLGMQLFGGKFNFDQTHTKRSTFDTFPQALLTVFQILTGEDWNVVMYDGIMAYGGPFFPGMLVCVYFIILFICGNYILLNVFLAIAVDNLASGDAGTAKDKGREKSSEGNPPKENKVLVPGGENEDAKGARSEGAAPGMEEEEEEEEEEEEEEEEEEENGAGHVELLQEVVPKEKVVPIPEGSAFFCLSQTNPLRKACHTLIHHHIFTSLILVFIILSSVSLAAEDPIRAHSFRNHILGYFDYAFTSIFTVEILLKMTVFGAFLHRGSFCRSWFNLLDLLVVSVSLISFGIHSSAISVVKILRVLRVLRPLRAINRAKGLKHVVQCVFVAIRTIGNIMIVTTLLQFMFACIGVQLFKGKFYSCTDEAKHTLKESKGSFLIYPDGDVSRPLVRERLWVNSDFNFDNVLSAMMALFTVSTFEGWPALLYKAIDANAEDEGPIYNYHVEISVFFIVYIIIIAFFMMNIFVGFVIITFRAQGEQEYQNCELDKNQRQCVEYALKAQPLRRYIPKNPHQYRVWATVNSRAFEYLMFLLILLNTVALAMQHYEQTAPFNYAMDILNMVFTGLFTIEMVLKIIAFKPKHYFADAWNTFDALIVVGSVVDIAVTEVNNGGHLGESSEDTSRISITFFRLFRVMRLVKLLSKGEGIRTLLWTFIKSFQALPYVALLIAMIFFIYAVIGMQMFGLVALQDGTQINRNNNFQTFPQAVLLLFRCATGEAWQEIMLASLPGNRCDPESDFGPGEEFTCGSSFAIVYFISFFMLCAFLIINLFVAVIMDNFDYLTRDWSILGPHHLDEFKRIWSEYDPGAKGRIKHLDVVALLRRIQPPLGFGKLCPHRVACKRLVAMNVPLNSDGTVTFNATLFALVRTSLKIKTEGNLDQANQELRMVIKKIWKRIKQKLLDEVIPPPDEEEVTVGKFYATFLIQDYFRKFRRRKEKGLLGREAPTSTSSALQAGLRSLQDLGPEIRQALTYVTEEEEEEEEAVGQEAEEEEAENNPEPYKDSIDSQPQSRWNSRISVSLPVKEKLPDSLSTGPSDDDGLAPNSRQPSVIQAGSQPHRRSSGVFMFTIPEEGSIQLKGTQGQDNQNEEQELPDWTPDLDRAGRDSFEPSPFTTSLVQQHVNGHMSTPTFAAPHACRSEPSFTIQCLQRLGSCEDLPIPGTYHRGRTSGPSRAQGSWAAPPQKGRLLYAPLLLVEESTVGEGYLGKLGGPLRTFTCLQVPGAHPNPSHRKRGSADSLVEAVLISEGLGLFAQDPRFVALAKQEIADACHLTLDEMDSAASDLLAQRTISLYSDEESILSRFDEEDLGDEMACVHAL

[13] = target: Cyclin-dependent kinase 7 (Mus musculus) (UniProt Q03147); assay: Binding affinity to mouse cell division protein kinase 7 by chromatographic analysis
[14] = target: Fanconi anemia group M protein homolog (Mus musculus) (UniProt Q8BGE5); assay: Binding affinity to mouse Fanconi anemia group M protein homologue by chromatographic analysis relative to pioglitazone
[15] = target: Septin-9 (Rattus norvegicus) (UniProt Q9QZR6); assay: Binding affinity to septin-9 in Sprague-Dawley rat heart homogenate after 15 mins by chromatographic analysis relative to pioglitazone; assay type: tissue-based
[16] = target: Endoplasmic reticulum membrane adapter protein XK (Mus musculus) (UniProt Q9QXY7); assay: Binding affinity to mouse membrane transport protein XK by chromatographic analysis relative to pioglitazone
Chain of Endoplasmic reticulum membrane adapter protein XK (Mus musculus) (Q9QXY7 whole entry): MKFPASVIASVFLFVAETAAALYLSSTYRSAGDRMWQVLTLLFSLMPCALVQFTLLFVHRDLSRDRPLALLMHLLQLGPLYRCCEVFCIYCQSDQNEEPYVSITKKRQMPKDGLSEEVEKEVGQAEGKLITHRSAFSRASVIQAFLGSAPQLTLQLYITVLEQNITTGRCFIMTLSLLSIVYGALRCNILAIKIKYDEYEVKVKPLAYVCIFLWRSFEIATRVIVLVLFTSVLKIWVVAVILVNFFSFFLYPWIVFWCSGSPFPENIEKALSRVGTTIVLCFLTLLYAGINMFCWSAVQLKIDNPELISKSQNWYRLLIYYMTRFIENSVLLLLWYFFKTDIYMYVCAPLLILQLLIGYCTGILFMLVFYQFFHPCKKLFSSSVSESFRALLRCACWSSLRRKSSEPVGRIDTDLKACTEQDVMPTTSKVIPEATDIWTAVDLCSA

[17] = target: Glyceraldehyde-3-phosphate dehydrogenase (Rattus norvegicus) (UniProt P04797); assay: Binding affinity to glyceraldehyde 3-phosphate dehydrogenase in Sprague-Dawley rat heart homogenate after 15 mins by chromatographic analysis; assay type: tissue-based
[18] = target: Inactive tyrosine-protein kinase transmembrane receptor ROR1 (Mus musculus) (UniProt Q9Z139); assay: Binding affinity to mouse tyrosine-protein kinase transmembrane receptor ROR1 by chromatographic analysis
[19] = target: Cyclic AMP-dependent transcription factor ATF-2 (Mus musculus) (UniProt P16951); assay: Binding affinity to mouse cyclic AMP-dependent transcription factor ATF-2 by chromatographic analysis
[20] = target: Hemopexin (Rattus norvegicus) (UniProt P20059); assay: Binding affinity to hemopexin precursor in Sprague-Dawley rat heart homogenate after 15 mins by chromatographic analysis; assay type: tissue-based
[21] = target: 2-oxoglutarate dehydrogenase complex component E1 (Mus musculus) (UniProt Q60597); assay: Binding affinity to mouse mitochondrial 2-oxoglutarate dehydrogenase E1 component by chromatographic analysis
[22] = target: Trace amine-associated receptor 7b (Rattus norvegicus) (UniProt Q923X8); assay: Binding affinity to trace amine-associated receptor 7b in Sprague-Dawley rat heart homogenate after 15 mins by chromatographic analysis; assay type: tissue-based
[23] = target: Triosephosphate isomerase (Rattus norvegicus) (UniProt P48500); assay: Binding affinity to triosephosphate isomerase in Sprague-Dawley rat heart homogenate after 15 mins by chromatographic analysis relative to rosiglitazone; assay type: tissue-based
[24] = target: Phosphoglycerate kinase 1 (Rattus norvegicus) (UniProt P16617); assay: Binding affinity to Phosphoglycerate kinase 1 in Sprague-Dawley rat heart homogenate after 15 mins by chromatographic analysis; assay type: tissue-based
[25] = target: Creatine kinase B-type (Rattus norvegicus) (UniProt P07335); assay: Binding affinity to creatine kinase B-type in Sprague-Dawley rat heart homogenate after 15 mins by chromatographic analysis; assay type: tissue-based
[26] = target: Citrate synthase, mitochondrial (Mus musculus) (UniProt Q9CZU6); assay: Binding affinity to mouse mitochondrial citrate synthase by chromatographic analysis relative to rosiglitazone
[27] = target: Creatine kinase M-type (Rattus norvegicus) (UniProt P00564); assay: Binding affinity to creatine kinase M-type in Sprague-Dawley rat heart homogenate after 15 mins by chromatographic analysis relative to rosiglitazone; assay type: tissue-based
[28] = target: Aspartate aminotransferase, mitochondrial (Rattus norvegicus) (UniProt P00507); assay: Binding affinity to mitochondrial aspartate aminotransferase in Sprague-Dawley rat heart homogenate after 15 mins by chromatographic analysis; assay type: tissue-based
[29] = target: Interleukin-12 subunit beta (Mus musculus) (UniProt P43432); assay: Binding affinity to mouse interleukin-12 beta chain precursor by chromatographic analysis

`CN(CCOc1ccc(CC2SC(=O)NC2=O)cc1)c1ccccn1` (configuration not stated) was tested, and the fold change (FC) [1] was 2.56, the Activity [2] was “Active” and the Activity [3] was “Active”. For the same compound, the Activity [4] was “Active”, the Activity [5] was “Active” and the Activity [6] was “Active”. The fold change (FC) [7] was 3.92, the fold change (FC) [8] was 3.74 and the Activity [9] was “Active”. The fold change (FC) [10] was 3.22, the Activity [11] was “Active” and the Activity [12] was “Active”. The Activity [13] was “Active”, the fold change (FC) [14] was 2.94 and the fold change (FC) [15] was 2.08. For the same compound, the fold change (FC) [16] was 1.88, the Activity [17] was “Active” and the Activity [18] was “Active”.

`CCc1ccc(CCOc2ccc(CC3SC(=O)NC3=O)cc2)nc1` (configuration not stated) was tested, and the fold change (FC) [19] was 1.64, the fold change (FC) [4] was 3.24 and the Activity [20] was “Active”. For the same compound, the Activity [21] was “Active”, the Activity [6] was “Active” and the Activity [22] was “Active”. The fold change (FC) [23] was 6.46, the Activity [24] was “Active” and the Activity [25] was “Active”. For the same compound, the fold change (FC) [26] was 5.52, the Activity [11] was “Active” and the fold change (FC) [11] was 2.26. For the same compound, the fold change (FC) [27] was 6.16, the Activity [12] was “Active” and the Activity [28] was “Active”. The Activity [16] was “Active”, the Activity [17] was “Active” and the Activity [29] was “Active”. For the same compound, the Activity [18] was “Active”.
